The values below come from patent US10604512B2, “3-(1H-indol-2-yl)-1H-indazoles and therapeutic uses thereof” (Samumed, LLC, priority 2015, dated 2020).

For test [1], the system named is Wnt activity (Sp5-Luc reporter, TCF/LEF binding sites) in SW480 colon carcinoma cells. Put plainly: Screening assay for Wnt activity: Sp5-Luc reporter gene assay in stably transduced SW480 colon carcinoma cells. Type of test: cell-based. To be noted: Homo sapiens; for EC50: overnight incubation, 10-point curve from 10 μM. In short, it runs like this: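 SW480 cells stably transduced with a luciferase reporter driven by an Sp5 promoter of eight TCF/LEF sites were plated at 4,000 cells/well in 1% FBS medium. They were exposed overnight at 37° C to a 10-point 1:3 dilution series from 10 μM (0.1% DMSO). Luminescence was normalized to DMSO for four-parameter EC50, or percent inhibition at 10 μM.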

Test [2] concerns Primary human fibroblasts derived from IPF patients (LL29 cells) treated with TGF-β1. Put plainly: Inhibition of the fibrotic process: αSMA staining in TGF-β1-treated primary human fibroblasts from IPF patients (LL29 cells). The format is cell-based. To be noted: Fibroblast, 96 h; for EC50: % αSMA-positive LL29 cells, TGF-β1 20 ng/mL, 4 days; for inhibition at 10 µM: given where EC50 >10 μM, αSMA, LL29 cells, TGF-β1, 4 days, read-out: percent inhibition at 10 μM. In short, it runs like this:
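LL29 IPF-patient fibroblasts in 1% FBS stimulated with TGF-β1 (20 ng/mL) and compound (10 μM–1.87 nM, 0.1% DMSO) for 4 days at 37 °C. SYTOX-positive cells excluded; % αSMA-positive cells imaged, normalized to TGF-β1/DMSO wells; EC50 by nonlinear regression, else % inhibition at 10 μM.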

In the case of `CCC(=O)Nc1cncc(-c2ccc3[nH]nc(-c4cc5c(-c6cccc(F)c6)cccc5[nH]4)c3c2)c1` [Compound 1, N-(5-(3-(4-(3-Fluorophenyl)-1H-indol-2-yl)-1H-indazol-5-yl)pyridin-3-yl) propionamide], the results for the EC50 in test [1] and in test [2] were 0.057 µM and 5.19 µM, respectively.
In the case of `Fc1cccc(-c2cccc3[nH]c(-c4n[nH]c5ccc(-c6cccnc6)cc45)cc23)c1` [Compound 4, 3-(4-(3-Fluorophenyl)-1H-indol-2-yl)-5-(pyridin-3-yl)-1H-indazole], the EC50 in test [1] was 0.275 µM. In test [2], the EC50 was more than 10 µM and the inhibition at 10 µM worked out at 10.4%.
Regarding `CN(C)Cc1cncc(-c2ccc3[nH]nc(-c4cc5c(-c6cccc(F)c6)cccc5[nH]4)c3c2)c1` [Compound 13, 1-(5-(3-(4-(3-Fluorophenyl)-1H-indol-2-yl)-1H-indazol-5-yl)pyridin-3-yl)-N,N-dimethylmethanamine], in test [1] (at 10 μM, given where EC50 >10 μM, read-out: percent inhibition at 10 μM), the inhibition at 10 µM turned out to be 22.5%. The EC50 is more than 10 µM in test [1] and 0.302 µM in test [2].
Consider `CCCC(=O)Nc1cncc(-c2ccc3[nH]nc(-c4cc5c(-c6cccc(F)c6)cccc5[nH]4)c3c2)c1` [Compound 17, N-(5-(3-(4-(3-Fluorophenyl)-1H-indol-2-yl)-1H-indazol-5-yl)pyridin-3-yl) butyramide], for which, in test [1], the EC50 is 0.125 µM. In test [2], the EC50 is more than 10 µM and the inhibition at 10 µM is 0%.
`O=C(Nc1cncc(-c2ccc3[nH]nc(-c4cc5c(-c6cccc(F)c6)cccc5[nH]4)c3c2)c1)C1CC1` [Compound 20, N-(5-(3-(4-(3-Fluorophenyl)-1H-indol-2-yl)-1H-indazol-5-yl)pyridin-3-yl) cyclopropanecarboxamide]: the EC50 in test [1] was 0.1 µM; in test [2], 4.55 µM.
`O=C(Nc1cncc(-c2ccc3[nH]nc(-c4cc5c(-c6cccc(F)c6)cccc5[nH]4)c3c2)c1)C1CCCCC1` [Compound 23, N-(5-(3-(4-(3-Fluorophenyl)-1H-indol-2-yl)-1H-indazol-5-yl)pyridin-3-yl) cyclohexanecarboxamide]: the EC50 came to 0.595 µM in test [1] and 3.29 µM in test [2].
For the molecule `Fc1cccc(-c2cccc3[nH]c(-c4n[nH]c5ccc(-c6ccccn6)cc45)cc23)c1` [Compound 28, 3-(4-(3-Fluorophenyl)-1H-indol-2-yl)-5-(pyridin-2-yl)-1H-indazole], the EC50 amounted to 0.44 µM in test [1] and 6.82 µM in test [2].
`CC(C)CC(=O)Nc1cncc(-c2ccc3[nH]nc(-c4cc5c(-c6ccc(F)cc6)cccc5[nH]4)c3c2)c1` [Compound 30, N-(5-(3-(4-(4-Fluorophenyl)-1H-indol-2-yl)-1H-indazol-5-yl)pyridin-3-yl)-3-methylbutanamide]: the EC50 stood at 0.42 µM in test [1] and 2.52 µM in test [2].
Taken in the same sequence, the figures for `CC(C)(C)C(=O)Nc1cncc(-c2ccc3[nH]nc(-c4cc5c(-c6ccc(F)cc6)cccc5[nH]4)c3c2)c1` [Compound 36, N-(5-(3-(4-(4-Fluorophenyl)-1H-indol-2-yl)-1H-indazol-5-yl)pyridin-3-yl) pivalamide] were 0.655 µM and 3.33 µM.
As to `O=C(Nc1cncc(-c2ccc3[nH]nc(-c4cc5c(-c6ccc(F)cc6)cccc5[nH]4)c3c2)c1)c1ccccc1` [Compound 39, N-(5-(3-(4-(4-Fluorophenyl)-1H-indol-2-yl)-1H-indazol-5-yl)pyridin-3-yl) benzamide], the EC50 in test [1] came to 0.53 µM; in test [2] it was 1.26 µM.
For `CN(C)Cc1cncc(-c2ccc3[nH]nc(-c4cc5c(-c6ccc(F)cc6)cccc5[nH]4)c3c2)c1` [Compound 41, 1-(5-(3-(4-(4-Fluorophenyl)-1H-indol-2-yl)-1H-indazol-5-yl)pyridin-3-yl)-N,N-dimethylmethanamine], in that order: 0.165 µM and 5.75 µM.
For `Fc1ccc(-c2cccc3[nH]c(-c4n[nH]c5ccc(-c6cncc(CN7CCCC7)c6)cc45)cc23)cc1` [Compound 42, 3-(4-(4-Fluorophenyl)-1H-indol-2-yl)-5-(5-(pyrrolidin-1-ylmethyl)pyridin-3-yl)-1H-indazole], in that order: 0.845 µM and 2.09 µM.
With `CC(C)(C)CC(=O)Nc1cncc(-c2ccc3[nH]nc(-c4cc5c(-c6ccc(F)cc6)cccc5[nH]4)c3c2)c1` [Compound 44, N-(5-(3-(4-(4-Fluorophenyl)-1H-indol-2-yl)-1H-indazol-5-yl)pyridin-3-yl)-3,3-dimethylbutanamide], the EC50 was 1.15 µM in test [1] and 4.99 µM in test [2].
As for `CCCC(=O)Nc1cncc(-c2ccc3[nH]nc(-c4cc5c(-c6ccc(F)cc6)cccc5[nH]4)c3c2)c1` [Compound 45, N-(5-(3-(4-(4-Fluorophenyl)-1H-indol-2-yl)-1H-indazol-5-yl)pyridin-3-yl)butyramide], the values for the EC50 in test [1] and in test [2] were 0.475 µM and 5.52 µM, respectively.
For `Fc1ccc(-c2cccc3[nH]c(-c4n[nH]c5ccc(-c6cncnc6)cc45)cc23)cc1` [Compound 55, 3-(4-(4-Fluorophenyl)-1H-indol-2-yl)-5-(pyrimidin-5-yl)-1H-indazole], in that order: 1.78 µM and 6.11 µM.
Taken in the same sequence, the figures for `Nc1cncc(-c2ccc3[nH]nc(-c4cc5c(-c6ccccc6F)cccc5[nH]4)c3c2)c1` [Compound 59, 5-(3-(4-(2-Fluorophenyl)-1H-indol-2-yl)-1H-indazol-5-yl)pyridin-3-amine] were 0.053 µM and 0.603 µM.
In the case of `CCNCc1cncc(-c2ccc3[nH]nc(-c4cc5c(-c6ccccc6F)cccc5[nH]4)c3c2)c1` [Compound 62, N-((5-(3-(4-(2-Fluorophenyl)-1H-indol-2-yl)-1H-indazol-5-yl)pyridin-3-yl)methyl)ethanamine], the half-maximal effective concentration (EC50) in test [1] was 4.18 µM; in test [2] it was 7.64 µM.
Turning to `CC(C)(C)CC(=O)Nc1cncc(-c2ccc3[nH]nc(-c4cc5c(-c6ccccc6F)cccc5[nH]4)c3c2)c1` [Compound 72, N-(5-(3-(4-(2-Fluorophenyl)-1H-indol-2-yl)-1H-indazol-5-yl)pyridin-3-yl)-3,3-dimethylbutanamide], the EC50 in test [1] is 4.26 µM; in test [2] it was more than 10 µM. The inhibition at 10 µM in test [2] stood at 0%.
For `O=C(Nc1cncc(-c2ccc3[nH]nc(-c4cc5c(-c6ccccc6F)cccc5[nH]4)c3c2)c1)C1CCCC1` [Compound 78, N-(5-(3-(4-(2-Fluorophenyl)-1H-indol-2-yl)-1H-indazol-5-yl)pyridin-3-yl) cyclopentanecarboxamide], in that order: 1.06 µM, more than 10 µM and 3.7%.
As to `CCC(=O)Nc1cncc(-c2ccc3[nH]nc(-c4cc5c(-c6cccnc6)cccc5[nH]4)c3c2)c1` [Compound 85, N-(5-(3-(4-(Pyridin-3-yl)-1H-indol-2-yl)-1H-indazol-5-yl)pyridin-3-yl) propionamide], the EC50 came out at 0.065 µM in test [1] and 0.066 µM in test [2].
Molecule `c1cncc(-c2ccc3[nH]nc(-c4cc5c(-c6cccnc6)cccc5[nH]4)c3c2)c1` [Compound 88, 5-(Pyridin-3-yl)-3-(4-(pyridin-3-yl)-1H-indol-2-yl)-1H-indazole] registered an EC50 in test [1] of 0.5 µM. Further, in test [2], the EC50 was more than 10 µM and the inhibition at 10 µM was 17.3%.
